Measurements from ChEMBL document CHEMBL1149335, “Dual-acting agents that possess free radical scavenging and antithrombotic activities: design, synthesis, and evaluation of phenolic tetrahydro-beta-carboline RGD peptide conjugates” (Bioorg Med Chem Lett, 2006).
Blank lines part the entries; values can stand above or below the compound they belong to. Numbered stars: 1 amine (or outer) side, 2 acyl side, 3 side chain; on linkers, the order of the positions; unused ones are H or OH. Square brackets hold non-standard residues; d marks the D form. Peptide text beside a SMILES is read from it. X1 = COc1cc(C2c3[nH]c4ccccc4c3CC(C(=O)[*:2])N2[*:1])cc(OC)c1O

What was measured:
Oryctolagus cuniculus [1] = species: Oryctolagus cuniculus; assay: Effect on ADP-induced platelet aggregation in rabbit platelet-rich plasma at 10 uM; type: functional
Rattus norvegicus [2] = assay: Decrease in weight of wet thrombus in rat at 5 umol/kg; type: functional
Oryctolagus cuniculus [3] = species: Oryctolagus cuniculus; assay: Effect on PAF-induced platelet aggregation in rabbit platelet-rich plasma at 10 uM; type: functional
Oryctolagus cuniculus [4] = species: Oryctolagus cuniculus; assay: Effect on ADP-induced platelet aggregation in rabbit platelet-rich plasma at 0.1 uM; type: functional
Rattus norvegicus [5] = assay: Decrease in weight of dry thrombus in rat at 5 umol/kg; type: functional
Oryctolagus cuniculus [6] = species: Oryctolagus cuniculus; assay: Effect on ADP-induced platelet aggregation in rabbit platelet-rich plasma at 1 uM; type: functional
Oryctolagus cuniculus [7] = species: Oryctolagus cuniculus; assay: Effect on PAF-induced platelet aggregation in rabbit platelet-rich plasma at 0.1 uM; type: functional
Oryctolagus cuniculus [8] = species: Oryctolagus cuniculus; assay: Effect on PAF-induced platelet aggregation in rabbit platelet-rich plasma at 1 uM; type: functional
PC-12 [9] = assay: H2O2 radical scavenging activity assessed in PC12 cells; type: functional, cell-based; conditions: Rattus norvegicus
PC-12 [10] = assay: NO radical scavenging activity assessed in PC12 cells; type: functional, cell-based; conditions: Rattus norvegicus
Rattus norvegicus [11] = species: Rattus norvegicus; assay: NO radical scavenging activity assessed as inhibition of Ach-induced vasorelaxation in rat aorta at 0.1 uM; type: functional
PC-12 [12] = assay: OH radical scavenging activity assessed in PC12 cells; type: functional, cell-based; conditions: Rattus norvegicus
Rattus norvegicus [13] = species: Rattus norvegicus; assay: NO radical scavenging activity assessed as inhibition of Ach-induced vasorelaxation in rat aorta at 0.01 uM; type: functional
Rattus norvegicus [14] = species: Rattus norvegicus; assay: NO radical scavenging activity assessed as inhibition of Ach-induced vasorelaxation in rat aorta at 1 uM; type: functional

EC50 (PC-12 [9]): 67.9 µM | EC50 (PC-12 [10]): 92.8 µM | EC50 (PC-12 [12]): 90.4 µM
SMILES: COc1cc(C2NC(C(=O)N[C@@H](CCCN=C(N)N)C(=O)NCC(=O)N[C@@H](CC(=O)O)C(=O)N[C@@H](Cc3ccccc3)C(=O)O)Cc3c2[nH]c2ccccc32)cc(OC)c1O (some centres undefined) (H-[X1]RGDF-OH)
inhibition (Rattus norvegicus [11]): 73.3% | Activity (Oryctolagus cuniculus [1]): 13.11% | Activity (Rattus norvegicus [2]): 22.09 mg | inhibition (Rattus norvegicus [13]): 25.4% | Activity (Oryctolagus cuniculus [3]): 21.52% | inhibition (Rattus norvegicus [14]): 90.9% | Activity (Oryctolagus cuniculus [4]): 38% | Activity (Rattus norvegicus [5]): 2.68 mg | Activity (Oryctolagus cuniculus [6]): 29.43% | Activity (Oryctolagus cuniculus [7]): 36.59% | Activity (Oryctolagus cuniculus [8]): 25.33%

EC50 (PC-12 [9]): 33.5 µM | EC50 (PC-12 [10]): 90.3 µM | EC50 (PC-12 [12]): 92.3 µM
SMILES: COc1cc(C2NC(C(=O)N[C@@H](CCCN=C(N)N)C(=O)NCC(=O)N[C@@H](CC(=O)O)C(=O)N[C@H](C(=O)O)C(C)C)Cc3c2[nH]c2ccccc32)cc(OC)c1O (some centres undefined) (H-[X1]RGDV-OH)
inhibition (Rattus norvegicus [11]): 71.2% | Activity (Oryctolagus cuniculus [1]): 14.38% | Activity (Rattus norvegicus [2]): 29.05 mg | inhibition (Rattus norvegicus [13]): 13.3% | Activity (Oryctolagus cuniculus [3]): 25.88% | inhibition (Rattus norvegicus [14]): 92.2% | Activity (Oryctolagus cuniculus [4]): 50.2% | Activity (Rattus norvegicus [5]): 4.85 mg | Activity (Oryctolagus cuniculus [6]): 29.6% | Activity (Oryctolagus cuniculus [7]): 54.06% | Activity (Oryctolagus cuniculus [8]): 35.8%

EC50 (PC-12 [9]): 43.7 µM | EC50 (PC-12 [10]): 89.7 µM
SMILES: COc1cc(C2N[C@H](C(=O)O)Cc3c2[nH]c2ccccc32)cc(OC)c1O (some centres undefined)
inhibition (Rattus norvegicus [11]): 57.2% | Activity (Oryctolagus cuniculus [1]): 27.33% | Activity (Rattus norvegicus [2]): 43.76 mg | inhibition (Rattus norvegicus [13]): 10.9% | Activity (Oryctolagus cuniculus [3]): 36.34% | inhibition (Rattus norvegicus [14]): 79.9% | Activity (Oryctolagus cuniculus [4]): 54.88% | Activity (Rattus norvegicus [5]): 7.27 mg | Activity (Oryctolagus cuniculus [6]): 46.65% | Activity (Oryctolagus cuniculus [7]): 55.8% | Activity (Oryctolagus cuniculus [8]): 51.42%

EC50 (PC-12 [9]): 30.6 µM | EC50 (PC-12 [10]): 87.6 µM | EC50 (PC-12 [12]): 95.4 µM
SMILES: COc1cc(C2NC(C(=O)N[C@@H](CCCN=C(N)N)C(=O)NCC(=O)N[C@@H](CC(=O)O)C(=O)N[C@@H](CO)C(=O)O)Cc3c2[nH]c2ccccc32)cc(OC)c1O (some centres undefined) (H-[X1]RGDS-OH)
inhibition (Rattus norvegicus [11]): 60.7% | Activity (Oryctolagus cuniculus [1]): 11.33% | Activity (Rattus norvegicus [2]): 28.01 mg | inhibition (Rattus norvegicus [13]): 12.8% | Activity (Oryctolagus cuniculus [3]): 28.61% | inhibition (Rattus norvegicus [14]): 91.9% | Activity (Oryctolagus cuniculus [4]): 49.37% | Activity (Rattus norvegicus [5]): 5 mg | Activity (Oryctolagus cuniculus [6]): 28.31% | Activity (Oryctolagus cuniculus [7]): 55.62% | Activity (Oryctolagus cuniculus [8]): 34.59%

The remaining lines, values behind:

SMILES: N=C(N)NCCC[C@H](N)C(=O)NCC(=O)N[C@@H](CC(=O)O)C(=O)N[C@@H](CO)C(=O)O
Activity (Oryctolagus cuniculus [1]): 16.6% | Activity (Rattus norvegicus [2]): 42.9 mg | Activity (Oryctolagus cuniculus [3]): 22.03% | Activity (Oryctolagus cuniculus [4]): 52.5% | Activity (Rattus norvegicus [5]): 7.62 mg | Activity (Oryctolagus cuniculus [6]): 39.62% | Activity (Oryctolagus cuniculus [7]): 56.69% | Activity (Oryctolagus cuniculus [8]): 36.47%

SMILES: CC(C)[C@H](NC(=O)[C@H](CC(=O)O)NC(=O)CNC(=O)[C@@H](N)CCCNC(=N)N)C(=O)O (H-RGDV-OH)
Activity (Oryctolagus cuniculus [1]): 11.65% | Activity (Rattus norvegicus [2]): 35.6 mg | Activity (Oryctolagus cuniculus [3]): 20.01% | Activity (Oryctolagus cuniculus [4]): 51.78% | Activity (Rattus norvegicus [5]): 6.43 mg | Activity (Oryctolagus cuniculus [6]): 29.61% | Activity (Oryctolagus cuniculus [7]): 55.07% | Activity (Oryctolagus cuniculus [8]): 34.84%

SMILES: N=C(N)NCCC[C@H](N)C(=O)NCC(=O)N[C@@H](CC(=O)O)C(=O)N[C@@H](Cc1ccccc1)C(=O)O (H-RGDF-OH)
Activity (Oryctolagus cuniculus [1]): 7.87% | Activity (Rattus norvegicus [2]): 26.68 mg | Activity (Oryctolagus cuniculus [3]): 7.73% | Activity (Oryctolagus cuniculus [4]): 34.99% | Activity (Rattus norvegicus [5]): 4.05 mg | Activity (Oryctolagus cuniculus [6]): 22.71% | Activity (Oryctolagus cuniculus [7]): 40.39% | Activity (Oryctolagus cuniculus [8]): 24.02%
